According to article PMC5843908, “Detection of PRMT1 inhibitors with stopped flow fluorescence” (Signal Transduction and Targeted Therapy, 2018):
Values belong to the substance of their own block, whether it stands above or below them.

Key:
PRMT1 [1] = test system: PRMT1; design: method as in earlier work; details: binary binding to PRMT1; ref 2 (supplement; Feng et al. 2011); cited from earlier work
PRMT1 [2] = details: PRMT1 catalysis, cited from earlier work
PRMT1 [3] = biological target: PRMT1 (Homo sapiens, UniProt Q99873); assay: Stopped flow fluorescence assay of PRMT1 inhibition ([PRMT1] 0.2 µM, [SAM] 3.5 µM, [H4FL] 0.4 µM); assay type: biochemical;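 also: Stopped-flow traces of fluorescent H4FL peptide quenched on binding PRMT1 and restored on release, recorded 900 s, averaged over repeated drives and fit to a double-exponential model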
Sequence of PRMT1 (Homo sapiens, UniProt Q99873) (Q99873 29-371): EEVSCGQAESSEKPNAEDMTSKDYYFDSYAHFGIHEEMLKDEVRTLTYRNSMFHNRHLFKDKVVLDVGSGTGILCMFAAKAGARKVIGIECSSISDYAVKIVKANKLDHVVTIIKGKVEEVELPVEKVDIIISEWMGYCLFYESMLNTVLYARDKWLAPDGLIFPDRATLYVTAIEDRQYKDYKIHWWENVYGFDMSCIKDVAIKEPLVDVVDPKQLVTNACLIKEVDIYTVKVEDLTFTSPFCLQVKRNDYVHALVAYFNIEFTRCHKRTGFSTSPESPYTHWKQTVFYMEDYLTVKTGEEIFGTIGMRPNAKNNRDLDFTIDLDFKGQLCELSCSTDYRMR

Substance: acetyl-SGRGKGGKGK(FL)GKGGAKRHRK [H4FL]
koff (PRMT1 [1]): 333 s⁻¹ | kon (PRMT1 [1]): 4e+07 M⁻¹ s⁻¹ | kcat (PRMT1 [2]): 0.00717 ± 0.00017 s⁻¹ | Km (PRMT1 [2]; read-out: Km of peptide substrate): 0.5 ± 0.05 µM

-b·k2 (slope of Phase II) (PRMT1 [3]; [H4R3Me2a] 0.025 µM): 0.000708 ± 1.5e-06 s⁻¹ | a (amplitude, Phase I) (PRMT1 [3]; [H4R3Me2a] 0.025 µM): 0.1544 ± 3.91E-04 | a·k1 (slope of Phase I) (PRMT1 [3]; [H4R3Me2a] 0.025 µM): 0.0108 ± 5.74e-05 s⁻¹ | b (amplitude, Phase II) (PRMT1 [3]; [H4R3Me2a] 0.025 µM): -0.1795 ± 1.47E-04 | k1 (rate constant, Phase I) (PRMT1 [3]; [H4R3Me2a] 0.025 µM): 0.06982 ± 3.27E-04 s^-1 | k2 (rate constant, Phase II) (PRMT1 [3]; [H4R3Me2a] 0.025 µM): 0.003946 ± 7.72E-06 s^-1 | -b·k2 (slope of Phase II) (PRMT1 [3]; [H4R3Me2a] 0.05 µM): 0.00064 ± 1.51e-06 s⁻¹ | a (amplitude, Phase I) (PRMT1 [3]; [H4R3Me2a] 0.05 µM): 0.1589 ± 4.16E-04 | a·k1 (slope of Phase I) (PRMT1 [3]; [H4R3Me2a] 0.05 µM): 0.0106 ± 5.8e-05 s⁻¹ | b (amplitude, Phase II) (PRMT1 [3]; [H4R3Me2a] 0.05 µM): -0.1863 ± 1.43E-04 | k1 (rate constant, Phase I) (PRMT1 [3]; [H4R3Me2a] 0.05 µM): 0.06665 ± 3.21E-04 s^-1 | k2 (rate constant, Phase II) (PRMT1 [3]; [H4R3Me2a] 0.05 µM): 0.003437 ± 7.65E-06 s^-1 | -b·k2 (slope of Phase II) (PRMT1 [3]; [H4R3Me2a] 0.1 µM): 0.000608 ± 1.59e-06 s⁻¹ | a (amplitude, Phase I) (PRMT1 [3]; [H4R3Me2a] 0.1 µM): 0.1731 ± 3.91E-04 | a·k1 (slope of Phase I) (PRMT1 [3]; [H4R3Me2a] 0.1 µM): 0.00927 ± 4.52e-05 s⁻¹ | b (amplitude, Phase II) (PRMT1 [3]; [H4R3Me2a] 0.1 µM): -0.1960 ± 1.50E-04 | k1 (rate constant, Phase I) (PRMT1 [3]; [H4R3Me2a] 0.1 µM): 0.05356 ± 2.31E-04 s^-1 | k2 (rate constant, Phase II) (PRMT1 [3]; [H4R3Me2a] 0.1 µM): 0.003104 ± 7.73E-06 s^-1 | -b·k2 (slope of Phase II) (PRMT1 [3]; [H4R3Me2a] 0.25 µM): 0.000613 ± 1.75e-06 s⁻¹ | a (amplitude, Phase I) (PRMT1 [3]; [H4R3Me2a] 0.25 µM): 0.1692 ± 4.25E-04 | a·k1 (slope of Phase I) (PRMT1 [3]; [H4R3Me2a] 0.25 µM): 0.00914 ± 4.96e-05 s⁻¹ | b (amplitude, Phase II) (PRMT1 [3]; [H4R3Me2a] 0.25 µM): -0.1883 ± 1.69E-04 | k1 (rate constant, Phase I) (PRMT1 [3]; [H4R3Me2a] 0.25 µM): 0.054 ± 2.60E-04 s^-1 | k2 (rate constant, Phase II) (PRMT1 [3]; [H4R3Me2a] 0.25 µM): 0.003253 ± 8.83E-06 s^-1 | -b·k2 (slope of Phase II) (PRMT1 [3]; [H4R3Me2a] 0.5 µM): 0.000482 ± 2.06e-06 s⁻¹ | a (amplitude, Phase I) (PRMT1 [3]; [H4R3Me2a] 0.5 µM): 0.1282 ± 4.32E-04 | a·k1 (slope of Phase I) (PRMT1 [3]; [H4R3Me2a] 0.5 µM): 0.00584 ± 4.38e-05 s⁻¹ | b (amplitude, Phase II) (PRMT1 [3]; [H4R3Me2a] 0.5 µM): -0.1431 ± 2.10E-04 | k1 (rate constant, Phase I) (PRMT1 [3]; [H4R3Me2a] 0.5 µM): 0.04557 ± 3.06E-04 s^-1 | k2 (rate constant, Phase II) (PRMT1 [3]; [H4R3Me2a] 0.5 µM): 0.00337 ± 1.35E-05 s^-1 | -b·k2 (slope of Phase II) (PRMT1 [3]; [H4R3Me2a] 1 µM): 0.000195 ± 1.96e-06 s⁻¹ | a (amplitude, Phase I) (PRMT1 [3]; [H4R3Me2a] 1 µM): 0.1156 ± 3.30E-04 | a·k1 (slope of Phase I) (PRMT1 [3]; [H4R3Me2a] 1 µM): 0.0041 ± 2.6e-05 s⁻¹ | b (amplitude, Phase II) (PRMT1 [3]; [H4R3Me2a] 1 µM): -0.1396 ± 5.20E-04 | k1 (rate constant, Phase I) (PRMT1 [3]; [H4R3Me2a] 1 µM): 0.0355 ± 2.01E-04 s^-1 | k2 (rate constant, Phase II) (PRMT1 [3]; [H4R3Me2a] 1 µM): 0.001394 ± 1.31E-05 s^-1 | -b·k2 (slope of Phase II) (PRMT1 [3]; [H4R3Me2a] 2 µM): 0.000103 ± 2.25e-06 s⁻¹ | a (amplitude, Phase I) (PRMT1 [3]; [H4R3Me2a] 2 µM): 0.0723 ± 3.03E-04 | a·k1 (slope of Phase I) (PRMT1 [3]; [H4R3Me2a] 2 µM): 0.00179 ± 1.72e-05 s⁻¹ | b (amplitude, Phase II) (PRMT1 [3]; [H4R3Me2a] 2 µM): -0.07524 ± 5.65E-04 | k1 (rate constant, Phase I) (PRMT1 [3]; [H4R3Me2a] 2 µM): 0.02475 ± 2.15E-04 s^-1 | k2 (rate constant, Phase II) (PRMT1 [3]; [H4R3Me2a] 2 µM): 0.001365 ± 2.82E-05 s^-1
Substance: acetyl-SGRme2aGKGGKGLGKGGAKRHRKVL [H4R3me2a]

Substance: acetyl-SGRmeGKGGKGK(FL)GKGGAKRHRK [H4FLme1]
koff (PRMT1 [1]): 292 s⁻¹ | kon (PRMT1 [1]): 2.3e+07 M⁻¹ s⁻¹
